# Source: patent US20260294846A1, “COMPOSITIONS AND METHODS FOR TREATING VULVAR AND VAGINAL ATROPHY (VVA)” (Daré Bioscience, Inc., priority 2023, published 2026)
# “Also recorded” adds a separate entry of the source.
# Legend:
# [1] = more potent than tamoxifen; cited from earlier work
# [2] = Systemic plasma pharmacokinetics of tamoxifen and metabolites after intravaginal DARE-VVA1; parameters: species or system human (women); conditions: human, in vivo, 20 mg
# Description: In each treatment group, participants will have serial blood sampling for PK analysis, with venous samples drawn from an indwelling line. Dense sampling will be performed following the Day 1 and Day 56 administrations of a tamoxifen vaginal insert; trough samples will be collected prior to dosing on Days 4, 7, 10, 18, 28, and 42, and a final sample will be collected at follow-up on Day 63. Samples will be analyzed using validated methods to determine plasma concentrations of tamoxifen and 3 metabolites: 4-hydroxytamoxifen, N-desmethyl-tamoxifen, and N-desmethyl-4-hydroxytamoxifen (endoxifen). […]
# Samples will be analyzed using validated methods to determine plasma concentrations of tamoxifen and 3 metabolites: 4-hydroxytamoxifen, N-desmethyltamoxifen, and N-desmethyl-4-hydroxytamoxifen (endoxifen).
# The PK characterization of tamoxifen concentrations for each dose to be profiled will use noncompartmental analysis (NCA). […] Standard PK parameters assessed will include measures of the extent of absorption using estimates of the area under the plasma concentration-time curve (AUC), the maximum observed drug concentration (Cmax), and the time to reach maximum drug concentration (Tmax). […]
# vagina = test: Vaginal pH; assay type: in vivo, human (women)
# Description: Estrogenic effect measurements will include vaginal cytology (maturation index; percentage of basal and superficial cells) and vaginal pH at screening and baseline, every 2 weeks during treatment, and 1 week after treatment.
# Vaginal swabs for determination of pH will be collected in accordance with the schedule of events (Table 4). The pH of vaginal secretions will be measured using pH paper.
# Local estrogenic effect measurements included obtaining vaginal epithelial cells from the lateral vaginal sidewall and determining the VMI. The VMI is determined by categorizing the ratio (proportion in 100 cells) of the three types of vaginal epithelial cell types (parabasal, intermediate and superficial). A total VMI score was calculated as: % superficial cells+(0.5 x% intermediate cells)+(0 x % parabasal cells). The VMI and vaginal pH were measured at screening and baseline, and subsequently every 2 weeks during treatment and 1 week after treatment.
# [3] = tested on: female New Zealand White rabbits (vagina, uterus, ovary); test: Study 3015-012: 12-week intravaginal toxicity of tamoxifen in rabbits; assay type: in vivo, rabbit (New Zealand White)
# Description: (§1) Tamoxifen is a selective estrogen receptor modulator (SERM) which has species and tissue specific estrogen agonist and antagonist properties. Given orally in women, tamoxifen has estrogen antagonist activity in breast tissue and estrogen agonist effects in the endometrium and vagina. When administered vaginally in women, there is reduced systemic exposure leading to reduced systemic side effects. The objective of this pre-clinical study was to test the safety, pharmacokinetics (PK) and toxicity of vaginal tamoxifen over a 3 and 9 month treatment period in female New Zealand White rabbits.
# (§2) All animal studies were conducted under IACUC approvals. In study 3015-012, at Charles River Labs (Mattawan, MI, USA), 45 female rabbits were randomly assigned to either sham (saline), placebo, or 5, 10 or 20 mg/kg/dose of vaginal tamoxifen. Investigational product (IP) was administered intravaginally once daily for 14 days, then twice weekly for up to 10 weeks with necropsy at 12-weeks. In study 858-0032-TX, conducted at WuXi AppTec (Suzhou, Jiangsu, China), 40 female rabbits were randomly assigned to sham (saline), placebo, or 10 or 30 mg/kg/dose of vaginal tamoxifen. IP was administered daily for 14 days and then twice weekly. An interim necropsy was performed at 26-weeks and then at 39-weeks.
# [4] = tested on: female New Zealand White rabbits (vagina, uterus, ovary); test: Study 858-0032-TX: 26/39-week intravaginal toxicity of tamoxifen in rabbits; assay type: in vivo, rabbit (New Zealand White)
# Description: as §1, §2
# [5] = cited from earlier work
# endometrium = conditions: cited from earlier work
# [6] = 20 mg/kg/day, 12 weeks, cranial and mid vagina
# [7] = 20 mg/kg/day, 12 weeks, intravaginal
# [8] = postmenopausal women, daily oral tamoxifen at least 4 years
compound,measurement,setting,value
4-hydroxytamoxifen [4-OHT],Potency relative to tamoxifen,[1],approximately 100 ×
"CC/C(=C(\c1ccccc1)c1ccc(OCCNC)cc1)c1ccccc1 [NDT, N-desmethyltamoxifen]",Systemic potency relative to tamoxifen,[1],approximately 1.7 ×
"CC/C(=C(\c1ccc(O)cc1)c1ccc(OCCNC)cc1)c1ccccc1 [endoxifen, N-desmethyl-4-hydroxytamoxifen]",Potency relative to tamoxifen,[1],approximately 100 ×
"CC/C(=C(\c1ccccc1)c1ccc(OCCN(C)C)cc1)c1ccccc1 [tamoxifen, 1-(p-dimethylamino-ethoxphenyl)-2-ethyl-1,2-diphenylethylene]",Cmax at 240 h,"[2]; Day 10, read-out: Single maximum plasma tamoxifen concentration",12 ng/mL
same,concentration at 240 h,"[2]; Day 10 trough, read-out: Plasma tamoxifen, median",8.29 ng/mL
same,Improvement in vaginal pH,"vagina; 10 mg and 20 mg, 8-week treatment",most improvement in vaginal pH
same,"Change in vaginal pH, baseline to end of treatment","vagina; all active doses combined, Day 56",statistically significant decreases in vaginal pH
same,"Median end of treatment vaginal pH levels, range",vagina; end of treatment,5.0-5.3
same,Adverse effects,"[3]; 20 mg dose, 12 weeks",no observed adverse effects
same,"Vagina microscopy, atrophy",[3]; [6],minimal to mild diffuse atrophy; also recorded: diffuse vaginal atrophy
same,"Vagina microscopy, inflammatory cell infiltration",[3]; [6],increased incidence and/or severity of minimal to mild mixed inflammatory cell infiltration; also recorded: increased incidence of vaginal mixed inflammatory cell infiltrates
same,Ovary microscopy,[3]; [7],atrophy of interstitial glands; also recorded: increased incidence of ovarian interstitial gland atrophy with decreased weights
same,Paired ovary weights,[3]; [7],decreases in the mean weights (absolute and relative to terminal body weight)
same,Uterus/cervix weights,[3]; [7],decreases in the mean weights (absolute and relative to terminal body weight); also recorded: decreased uterine weights
same,"Vaginal epithelial degeneration, erosion, ulceration",[3]; 12-week necropsy,"no evidence of epithelial degeneration, erosion, or ulceration"
same,Other parameters,[3]; 12 weeks,no observed tamoxifen-related adverse effects on any of the other parameters
same,Adverse effects,"[4]; 30 mg dose, 39 weeks",no observed adverse effects
same,Females affected by uterine atrophy,"[4]; 30 mg/day, 26 weeks",Four of five
same,Ovary microscopy,"[4]; 30 mg/kg/day, 26 weeks",moderate to marked atrophy of the interstitial cells in the ovary
same,Uterine and ovarian weights,"[4]; 30 mg/kg/day, 26 weeks",Product-related uterine and ovarian weight decreases
same,Uterus microscopy,"[4]; 30 mg/kg/day, 26 weeks",mild to moderate uterine atrophy
same,Macroscopic changes,"[4]; 26 weeks, any treatment group",no IP related macroscopic changes
same,Systemic toxicity clinical findings,"[4]; two studies, up to 39 weeks",no observed clinical findings which would be suspicious for systemic toxicity
same,Uterine or endometrial hyperplasia,"[4]; two studies, up to 39 weeks",no evidence of uterine or endometrial hyperplasia
same,Local genital tract findings,"[4]; vagina, uterus, ovary, up to 39 weeks",mostly organ atrophy
same,"Steady-state plasma concentration of NDT, range",[5]; 3 months oral daily 20 mg tamoxifen,152 to 706 ng/mL
same,Mean steady-state concentration of tamoxifen,[5]; oral 20 mg dose,122 ng/mL
same,"Steady-state concentration of tamoxifen, range",[5]; oral 20 mg dose,71-183
same,"Peak plasma concentration of NDT, range",[5]; oral tamoxifen,10 to 20 ng/mL
same,"Maximum plasma concentration of tamoxifen, range",[5]; single oral dose 20 mg,35 to 45 ng/mL
same,Mean maximum plasma concentration of tamoxifen,[5]; single oral dose 20 mg,40 ng/mL
same,Endometrial risk relative to general postmenopausal population,endometrium; [8],about two to three times that of the general postmenopausal population
same,Risk of complex hyperplasia,endometrium; [8],3%
same,Risk of endometrial carcinoma,endometrium; [8],2%
same,Risk of simple hyperplasia,endometrium; [8],approximately 12%
same,Risk of endometrial hyperplasia,"endometrium; premenopausal women, oral tamoxifen",no different than in the general premenopausal population
